Measurements from patent publication US20240270809A1, “ORAL GLP RECEPTOR AGONISTS” (priority 2020, published 2024).
Positions of bridges follow the written chain, without caps; N, C: chain ends. Non-standard residues stand in square brackets, D forms with d. Residues, ends and D or L forms follow the SMILES beside them. αMePhe(2-F) = C[C@](N)(Cc1ccccc1F)C(=O)O; αMeL = CC(C)C[C@](C)(N)C(=O)O; Nle = CCCC[C@H](N)C(=O)O; Aib = CC(C)(N)C(=O)O

Columns and labels:
human GLP2 receptor = molecular target: T1, human GLP2 receptor (Homo sapiens, UniProt O95838); assay: cAMP accumulation assay, functional agonism of human GLP2 receptor; assay type: cell-based; conditions: HEK cells infected with human GLP2 receptor BacMam virus, HTRF cAMP; for Emax: HEK293, read-out: Human GLP-2R agonist cAMP Emax; for EC50: read-out: Human GLP-2R agonist cAMP pEC50 (converted)
T1 construct: expressed in transfected cells; host or cells: HEK cells, BacMam virus transduction
T1 sequence (O95838 1-553): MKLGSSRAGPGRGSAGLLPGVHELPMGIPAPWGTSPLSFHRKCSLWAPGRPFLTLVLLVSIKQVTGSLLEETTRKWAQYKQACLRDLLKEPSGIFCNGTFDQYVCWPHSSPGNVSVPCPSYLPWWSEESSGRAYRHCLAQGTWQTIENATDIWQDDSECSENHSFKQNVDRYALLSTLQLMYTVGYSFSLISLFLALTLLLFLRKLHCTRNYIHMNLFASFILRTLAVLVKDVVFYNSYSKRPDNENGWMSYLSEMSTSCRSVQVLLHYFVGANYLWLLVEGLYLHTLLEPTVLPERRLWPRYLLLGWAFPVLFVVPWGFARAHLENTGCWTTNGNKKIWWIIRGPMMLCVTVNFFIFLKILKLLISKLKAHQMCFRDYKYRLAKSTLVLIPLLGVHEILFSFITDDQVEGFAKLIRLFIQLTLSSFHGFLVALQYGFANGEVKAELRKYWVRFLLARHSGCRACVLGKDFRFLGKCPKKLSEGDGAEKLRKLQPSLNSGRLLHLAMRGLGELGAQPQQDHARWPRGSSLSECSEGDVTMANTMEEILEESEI
Summary of the method: (§1)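 HEK cells transduced for 24 hours with human GLP2 or GLP1 receptor BacMam virus were frozen, then stimulated with agonist in HBSS containing 0.5 mM IBMX. After 45 min at 37° C, cAMP was measured by HTRF after adding detection reagents in lysis buffer.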

human GLP1 receptor = molecular target: T2, human GLP1 receptor (Homo sapiens, UniProt P43220); assay: cAMP accumulation assay, functional agonism of human GLP1 receptor; assay type: cell-based; conditions: HEK cells infected with human GLP1 receptor BacMam virus, HTRF cAMP; for Emax: HEK293, read-out: Human GLP-1R agonist cAMP Emax; for EC50: read-out: Human GLP-1R agonist cAMP pEC50 (converted)
T2 construct: expressed in transfected cells; host or cells: HEK cells, BacMam virus transduction
T2 sequence (P43220 24-463): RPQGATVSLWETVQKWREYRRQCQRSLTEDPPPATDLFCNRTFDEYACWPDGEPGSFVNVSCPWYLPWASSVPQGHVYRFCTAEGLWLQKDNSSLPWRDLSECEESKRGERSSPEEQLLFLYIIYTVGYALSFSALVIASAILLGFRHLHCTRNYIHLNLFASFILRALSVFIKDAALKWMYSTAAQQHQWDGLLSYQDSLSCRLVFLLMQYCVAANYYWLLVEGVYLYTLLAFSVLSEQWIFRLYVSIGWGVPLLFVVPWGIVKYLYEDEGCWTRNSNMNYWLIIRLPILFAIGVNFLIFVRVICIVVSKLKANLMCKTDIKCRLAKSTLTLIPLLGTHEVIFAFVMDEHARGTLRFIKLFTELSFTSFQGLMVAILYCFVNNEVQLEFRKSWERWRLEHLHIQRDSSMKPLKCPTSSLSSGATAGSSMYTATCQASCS
Summary of the method: as §1

mouse GLP2 receptor = molecular target: T3, mouse GLP2 receptor (Mus musculus, UniProt Q5IXF8); assay: cAMP accumulation assay, functional agonism of mouse GLP2 receptor; assay type: cell-based; conditions: HEK cells transiently transfected with mouse GLP2 receptor, HTRF cAMP; for Emax: HEK293, read-out: Mouse GLP-2R agonist cAMP Emax; for EC50: read-out: Mouse GLP-2R agonist cAMP pEC50 (converted)
T3 construct: expressed in transfected cells; host or cells: HEK cells, transient transfection with GeneJuice
T3 sequence (Q5IXF8 1-512): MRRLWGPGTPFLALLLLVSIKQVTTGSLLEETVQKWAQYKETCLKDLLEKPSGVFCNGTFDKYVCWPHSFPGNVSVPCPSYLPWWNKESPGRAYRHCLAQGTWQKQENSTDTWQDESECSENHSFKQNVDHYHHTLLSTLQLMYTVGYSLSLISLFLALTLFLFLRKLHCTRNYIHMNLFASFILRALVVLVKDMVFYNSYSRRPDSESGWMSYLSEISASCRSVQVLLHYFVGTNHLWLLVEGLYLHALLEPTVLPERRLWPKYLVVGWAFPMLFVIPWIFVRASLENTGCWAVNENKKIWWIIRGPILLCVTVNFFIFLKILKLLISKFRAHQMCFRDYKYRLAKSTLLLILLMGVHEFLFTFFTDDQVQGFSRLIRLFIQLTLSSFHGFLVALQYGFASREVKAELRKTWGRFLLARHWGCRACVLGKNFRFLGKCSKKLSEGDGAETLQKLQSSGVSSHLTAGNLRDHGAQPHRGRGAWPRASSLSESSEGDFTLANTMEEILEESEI
Summary of the method: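 Transiently transfected HEK cells (24 h, frozen, 8000/well) in HBSS with 0.5 mM IBMX exposed to compound concentration series for 45 min at 37 °C. cAMP measured by HTRF after lysis and 1 h at RT; pEC50 from four-parameter concentration-response fit.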

[1] = Stability of peptides in Fasted-State Simulated Intestinal Fluid (FaSSIF); assay type: in vitro ADME; conditions: FaSSIF with 10 mg/ml pancreatin; t=30 mins, 37° C., pH 6.5, 10 mg/ml pancreatin
[2] = Stability of peptides in Fasted-State Simulated Gastric Fluid (FaSSGF); assay type: in vitro ADME; conditions: FaSSGF with 0.1 mg/ml pepsin; t=30 mins, 37° C., pH 1.6, 0.1 mg/ml pepsin
Protocol: Stability of peptides was tested in Fasted-State Simulated gastric Fluid (FaSSGF) prepared according to manufacturer's protocol (Biorelevant, art. no. FFF01). […] FaSSGF was pre-incubated for 15 min at 37° C. and spiked with test and reference item working solutions. Experiments were conducted in duplicate in a non-serial manner. The total incubation volume per replicate was 150 μl. […] All samples and calibration standards (prepared in FaSSGF) were precipitated by addition of 300 μl precipitant (ACN / 2% acetic acid / 0.2% HFBA, (precipitation regent, PR)) containing internal standards (ISTD) to 150 μl sample. After incubation for 1 h at room temperature all samples were centrifuged for 10 min at 2,200×g (room temperature).

[3] = Stability of peptides in rat intestinal fluid (ratIF); conditions: Sprague Dawley, undiluted rat small intestinal fluid (ratIF)
Protocol: Peptides were tested for in vitro stability in native intestinal fluid obtained from the rat small intestine. Rat Sprague Dawley Small Intestinal Fluid (ratIF) (from Biotrend art. no. RSD-SIF-MI-30ML, undiluted) was preincubated for 15 min at 37° C. and spiked with test and reference item working solutions. Experiments were conducted in duplicate in a non-serial manner. The total incubation volume per replicate was 150 μl. […] All samples and calibration standards (prepared in ratIF) were precipitated by addition of 300 μl precipitant (ACN / 2% acetic acid / 0.2% HFBA, (precipitation regent, PR)) containing internal standards (ISTD) to 150 μl sample. After incubation for 1 h at room temperature all samples were centrifuged for 10 min at 2,200×g (room temperature).

| Emax (human GLP2 receptor) | EC50 (human GLP2 receptor) | Emax (human GLP1 receptor) | EC50 (human GLP1 receptor) | Emax (mouse GLP2 receptor) | EC50 (mouse GLP2 receptor) | remaining at 0.5 h [1] | remaining at 0.5 h [2] | remaining at 0.5 h [3] | SMILES |
| --- | --- | --- | --- | --- | --- | --- | --- | --- | --- |
| 103% | 0.02 nM | 95.2% | 0.2 nM | 103% | 0.501 nM | 61.9% | 100% | 63.6% | CCCC[C@@H]1NC(=O)[C@H](CCC(=O)O)NC(=O)[C@@H](NC(=O)[C@H](CO)NC(=O)[C@](C)(Cc2ccccc2F)NC(=O)[C@H](CO)NC(=O)[C@@H](C)NC(=O)[C@H](CC(=O)O)NC(=O)C(C)(C)NC(=O)[C@@H](N)Cc2c[nH]cn2)CCCCNC(=O)C[C@@H](C(=O)N[C@H](C(=O)N[C@@H](CC(C)C)C(=O)N[C@@H](CC(=O)O)C(=O)N[C@H]2CCC(=O)NCCCC[C@@H](C(=O)N[C@@H](CC(=O)O)C(=O)N[C@@H](Cc3ccccc3)C(=O)N[C@H](C(=O)N[C@H]3CCCCNC(=O)C[C@@H](C(=O)N[C@H]4CCC(=O)NCCCC[C@@H](C(N)=O)NC(=O)[C@H]([C@@H](C)O)NC(=O)[C@H]([C@@H](C)CC)NC(=O)[C@H](CCCCN)NC4=O)NC(=O)[C@H]([C@@H](C)CC)NC(=O)[C@H](CC(C)C)NC(=O)[C@H](Cc4c[nH]c5ccccc45)NC3=O)[C@@H](C)CC)NC(=O)[C@H](C)NC(=O)[C@H](C)NC(=O)[C@H](CCCCN)NC2=O)[C@@H](C)CC)NC(=O)[C@@H](Cc2ccccc2)NC1=O [Example 59] (H-H[Aib]D[dA]S[αMePhe(2-F)]SKE[Nle][dF]DILDEKAAKDFIKWLIDEKITK-NH2; lactam 8-12, 16-20, 24-28, 29-33 (inferred); C-terminus assumed) |
| 102% | 0.0158 nM | 96.5% | 0.158 nM | 102% | 0.794 nM | 62.5% | 100% | 89.6% | CCCC[C@@H]1NC(=O)[C@H](CCC(=O)O)NC(=O)[C@@H](NC(=O)[C@H](CO)NC(=O)[C@](C)(Cc2ccccc2F)NC(=O)[C@H](CO)NC(=O)[C@@H](C)NC(=O)[C@H](CC(=O)O)NC(=O)C(C)(C)NC(=O)[C@@H](N)Cc2c[nH]cn2)CCCCNC(=O)C[C@@H](C(=O)N[C@@](C)(CC(C)C)C(=O)N[C@@H](CC(C)C)C(=O)N[C@@H](CC(=O)O)C(=O)N[C@H]2CCC(=O)NCCCC[C@@H](C(=O)N[C@@H](CC(=O)O)C(=O)N[C@@H](Cc3ccccc3)C(=O)N[C@H](C(=O)N[C@H]3CCCCNC(=O)C[C@@H](C(=O)N[C@H]4CCC(=O)NCCCC[C@@H](C(N)=O)NC(=O)[C@H]([C@@H](C)O)NC(=O)[C@H]([C@@H](C)CC)NC(=O)[C@H](CCCCN)NC4=O)NC(=O)[C@H]([C@@H](C)CC)NC(=O)[C@H](CC(C)C)NC(=O)[C@H](Cc4c[nH]c5ccccc45)NC3=O)[C@@H](C)CC)NC(=O)[C@H](C)NC(=O)[C@H](C)NC(=O)[C@H](CCCCN)NC2=O)NC(=O)[C@@H](Cc2ccccc2)NC1=O [Example 60] (H-H[Aib]D[dA]S[αMePhe(2-F)]SKE[Nle][dF]D[αMeL]LDEKAAKDFIKWLIDEKITK-NH2; lactam 8-12, 16-20, 24-28, 29-33 (inferred); C-terminus assumed) |
